Experimental data taken from paper PMC10287566, “Signaling-specific inhibition of the CB1 receptor for cannabis use disorder: phase 1 and phase 2a randomized trials” (Nature Medicine, 2023).

Legend:
[1] = system: squirrel monkeys; experiment: i.v. self-administration of THC in squirrel monkeys; type: in vivo, Saimiri sciureus
From the text: Two experimental models were used: (1) THC i.v. self-administration and (2) THC-induced reinstatement of THC seeking. These two approaches were used to model the maintenance of daily cannabis use and cannabis seeking after a period of abstinence.
For the self-administration experiments, four male squirrel monkeys (800–1,100 g; the estimated age was 17 years for three monkeys and 14 years for the fourth one) were used because this species reliably self-administers i.v. THC. Monkeys were trained to lever press for an i.v. injection of THC (4 µg kg^–1 per injection) under a 10-response fixed ratio schedule of drug injection (FR10; each 10th response on the lever produced an injection of THC, followed by a 60-s timeout). Number of lever presses and number of injections per session were recorded.

[2] = system: volunteers with CUD; experiment: Phase 2a study, safety; type: in vivo, human
From the text: Data from the first dose level were reviewed by the Data Safety Monitoring Board before ascending to the next dose level.
On day 6 of each period, before discharge from the research center, participants had sitting blood pressure and pulse rate measurements, clinical laboratory tests (chemistry, hematology and urinalysis) and body weight taken. The study start date was 23 October 2018; primary completion date was 31 July 2020; and actual study completion date was 1 January 2021. After the second study phase, participants were contacted 28 d after discharge so that we could inquire about the occurrence of any serious AEs (including pregnancies) that may have occurred since leaving the research site.

[3] = system: volunteers with CUD; experiment: Phase 2a study, plasma steroids, endocannabinoids, THC and metabolites; type: in vivo, human
Protocol: THC and its metabolites (11-OH-THC and 11-COOH-THC) were assessed at the same timepoints. […] THC and its metabolites analyses were performed using PD dataset (n = 13 for both doses).
PK parameters for AEF0117 were subject to descriptive statistics separately for each treatment group.
ALLO, DHEA, PREG and TESTO, as well as AEA and 2-AG, were measured. Data were analyzed using a global crossover MRMM analysis on the PD dataset (n = 13 per dose cohort).

[4] = system: mice; experiment: Depression-related behavior, sucrose preference test, repeated treatment; type: in vivo; conditions: mice, sucrose preference test, highest dose tested 15 mg/kg
From the text: Anxiety-like behaviors were studied in the elevated plus maze (EPM), a rodent model used to evaluate the putative anxiogenic or anxiolytic effects of pharmacological compounds. Depression-related behaviors were studied using the sucrose preference test as a model of anhedonia, one of the cardinal symptoms of depression.
The sucrose preference test was done in the home cage. Two identical bottles, one containing water and the other containing a 2% sucrose solution, were placed in the hopper of each cage. The mice had unlimited access to water and sucrose solutions during the active phase—the dark phase of the light/dark cycle that started at 20:00. The volume of water and of sucrose solution consumed was measured over two […] intervals, the first between 19:00 and 20:30 and the second between 20:30 and 22:00. At each timepoint, the bottles were weighed, and the intake volume was calculated by subtracting the […].
The EPM assessment was done on day 26, and the sucrose preference test was done on day 28.

COc1ccc(CO[C@H]2CC[C@@]3(C)C(=CC[C@H]4[C@@H]5CC[C@H](C(C)=O)[C@@]5(C)CC[C@@H]43)C2)cc1 [AEF0117, 3β-(4-methoxybenzyloxy)pregn-5-en-20-one]
i.v. self-administration of THC ([1]; 15 µg kg^−1 oral): significantly reduced | % Inhibition ([1]; Self-administration of THC): 80% | ID50 ([1]; Self-administration of THC): 0.005 mg/kg | ID100 ([1]; Self-administration of THC): 0.015 mg/kg | Number of TEAEs ([2]; 0.06 mg/d 5 d): 9 E | Number of participants with a TEAE leading to discontinuation ([2]; 0.06 mg/d 5 d): 0 n (%) | Number of participants with an SAE ([2]; 0.06 mg/d 5 d): 0 n (%) | Number of participants with at least one TEAE ([2]; 0.06 mg/d 5 d): 6 (42.9) n (%) | Participants with TEAE: Mild ([2]; 0.06 mg/d 5 d): 6 (42.9) n (%) | Participants with TEAE: Moderate ([2]; 0.06 mg/d 5 d): 0 n (%) | Participants with TEAE: Not related ([2]; 0.06 mg/d 5 d): 2 (14.3) n (%) | Participants with TEAE: Related ([2]; 0.06 mg/d 5 d): 6 (42.9) n (%) | Participants with TEAE: Severe ([2]; 0.06 mg/d 5 d): 0 n (%) | TEAEs by SOC: Cardiac disorders ([2]; 0.06 mg/d 5 d): 1 (7.1) n (%) | TEAEs by SOC: Ear and labyrinth disorders ([2]; 0.06 mg/d 5 d): 0 n (%) | TEAEs by SOC: Gastrointestinal disorders ([2]; 0.06 mg/d 5 d): 0 n (%) | TEAEs by SOC: General disorders and administration site conditions ([2]; 0.06 mg/d 5 d): 1 (7.1) n (%) | TEAEs by SOC: Infections and infestations ([2]; 0.06 mg/d 5 d): 0 n (%) | TEAEs by SOC: Injury, poisoning and procedural complications ([2]; 0.06 mg/d 5 d): 0 n (%) | TEAEs by SOC: Investigations ([2]; 0.06 mg/d 5 d): 3 (21.4) n (%) | TEAEs by SOC: Musculoskeletal and connective tissue disorders ([2]; 0.06 mg/d 5 d): 0 n (%) | TEAEs by SOC: Nervous system disorders ([2]; 0.06 mg/d 5 d): 3 (21.4) n (%) | TEAEs by SOC: Psychiatric disorders ([2]; 0.06 mg/d 5 d): 0 n (%) | TEAEs by SOC: Renal and urinary disorders ([2]; 0.06 mg/d 5 d): 0 n (%) | TEAEs by SOC: Respiratory, thoracic and mediastinal disorders ([2]; 0.06 mg/d 5 d): 1 (7.1) n (%) | TEAEs by SOC: Skin and subcutaneous tissue disorders ([2]; 0.06 mg/d 5 d): 0 n (%) | Number of TEAEs ([2]; 1 mg/d 5 d): 24 E | Number of participants with a TEAE leading to discontinuation ([2]; 1 mg/d 5 d): 1 (6.7) n (%) | Number of participants with an SAE ([2]; 1 mg/d 5 d): 0 n (%) | Number of participants with at least one TEAE ([2]; 1 mg/d 5 d): 8 (53.3) n (%) | Participants with TEAE: Mild ([2]; 1 mg/d 5 d): 8 (53.3) n (%) | Participants with TEAE: Moderate ([2]; 1 mg/d 5 d): 1 (6.7) n (%) | Participants with TEAE: Not related ([2]; 1 mg/d 5 d): 1 (6.7) n (%) | Participants with TEAE: Related ([2]; 1 mg/d 5 d): 8 (53.3) n (%) | Participants with TEAE: Severe ([2]; 1 mg/d 5 d): 1 (6.7) n (%) | TEAEs by SOC: Cardiac disorders ([2]; 1 mg/d 5 d): 0 n (%) | TEAEs by SOC: Ear and labyrinth disorders ([2]; 1 mg/d 5 d): 0 n (%) | TEAEs by SOC: Gastrointestinal disorders ([2]; 1 mg/d 5 d): 4 (26.7) n (%) | TEAEs by SOC: General disorders and administration site conditions ([2]; 1 mg/d 5 d): 0 n (%) | TEAEs by SOC: Infections and infestations ([2]; 1 mg/d 5 d): 0 n (%) | TEAEs by SOC: Injury, poisoning and procedural complications ([2]; 1 mg/d 5 d): 2 (13.3) n (%) | TEAEs by SOC: Investigations ([2]; 1 mg/d 5 d): 2 (13.3) n (%) | TEAEs by SOC: Musculoskeletal and connective tissue disorders ([2]; 1 mg/d 5 d): 2 (13.3) n (%) | TEAEs by SOC: Nervous system disorders ([2]; 1 mg/d 5 d): 3 (20.0) n (%) | TEAEs by SOC: Psychiatric disorders ([2]; 1 mg/d 5 d): 2 (13.3) n (%) | TEAEs by SOC: Renal and urinary disorders ([2]; 1 mg/d 5 d): 0 n (%) | TEAEs by SOC: Respiratory, thoracic and mediastinal disorders ([2]; 1 mg/d 5 d): 0 n (%) | TEAEs by SOC: Skin and subcutaneous tissue disorders ([2]; 1 mg/d 5 d): 1 (6.7) n (%) | plasma THC and its metabolites, AEF0117 vs placebo periods [3]: no statistically significant differences | Overall effect: increase in depression-related behaviors [4]: No
